# In US9670227B2, “Thienopyrimidine derivatives, a process for their preparation and pharmaceutical compositions containing them” (LES LABORATOIRES SERVIER, priority 2013, dated 2017):
# Legend:
# Mcl-1 protein = Mcl-1 protein (UniProtKB primary accession number: Q07820) (Homo sapiens, UniProt Q07820); assay: Inhibition of Mcl-1 by fluorescence polarisation, Method 1; format: binding; settings: fluorescence polarisation; Method 1, or Method 2; read-out: IC50 (M) Mcl-1 FP
# Outline: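 Compounds were tested as 11-point serial dilutions at 5% final DMSO against 5 nM Mcl-1 with 1 nM fluorescein-labelled ligand in 10 mM HEPES, 150 mM NaCl, 0.05% Tween 20, pH 7.4. Relative binding potency was read by fluorescence polarisation.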
# [1] = tested on: H929 multiple myeloma tumour line; assay: In vitro cytotoxicity, Microculture Tetrazolium Assay; format: cell-based; settings: Homo sapiens, NCI-H929, 48 h, H929 cells, 48 hours exposure, MTT; read-out: IC50 (μM) MTT H929
# Procedure: The cytotoxicity studies were carried out on the H929 multiple myeloma tumour line.
# The cells are distributed onto microplates and exposed to the test compounds for 48 hours.
# Sequence of Mcl-1 protein (Q07820 whole entry): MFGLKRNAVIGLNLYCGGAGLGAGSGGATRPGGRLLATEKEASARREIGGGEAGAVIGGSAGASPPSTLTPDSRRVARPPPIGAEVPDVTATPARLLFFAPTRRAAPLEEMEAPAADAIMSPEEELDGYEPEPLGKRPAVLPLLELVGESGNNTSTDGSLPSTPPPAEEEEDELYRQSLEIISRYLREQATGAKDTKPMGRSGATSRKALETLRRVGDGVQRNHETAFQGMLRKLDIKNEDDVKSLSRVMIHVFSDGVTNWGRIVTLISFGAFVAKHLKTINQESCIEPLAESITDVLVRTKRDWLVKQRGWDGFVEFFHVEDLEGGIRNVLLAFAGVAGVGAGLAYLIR
SMILES,IC50 (Mcl-1 protein),IC50 [1]
"COc1ccccc1CC(Oc1ncnc2sc(-c3cccc(OCc4ccncc4)c3)c(-c3ccc(OCCN4CCN(C)CC4)c(Cl)c3C)c12)C(=O)O [Example 587, (2R)-2-[((5Sa)-5-{3-chloro-2-methyl-4-[2-(4-methylpiperazin-1-yl)ethoxy]phenyl}-6-[3-(pyridin-4-ylmethoxy)phenyl]thieno[2,3-d]pyrimidin-4-yl)oxy]-3-(2-methoxyphenyl)propanoic acid]",2.6e-08 M,0.539 µM
"COc1ccccc1CC(Oc1ncnc2sc(-c3cccc(OCCN4CCOCC4)c3)c(-c3ccc(OCCN4CCN(C)CC4)c(Cl)c3C)c12)C(=O)O [Example 588, (2R)-2-[((5Sa)-5-{3-chloro-2-methyl-4-[2-(4-methylpiperazin-1-yl)ethoxy]phenyl}-6-{3-[2-(morpholin-4-yl)ethoxy]phenyl}thieno[2,3-d]pyrimidin-4-yl)oxy]-3-(2-methoxyphenyl)propanoic acid]",8e-09 M,0.256 µM
"COCc1cc(-c2sc3ncnc(OC(Cc4ccccc4OCc4ccnc(OC)n4)C(=O)O)c3c2-c2ccc(OCCN3CCN(C)CC3)c(Cl)c2C)ccc1F [Example 594, (2R)-2-[((5Sa)-5-{3-chloro-2-methyl-4-[2-(4-methylpiperazin-1-yl)ethoxy]phenyl}-6-[4-fluoro-3-(methoxymethyl)phenyl]thieno[2,3-d]pyrimidin-4-yl)oxy]-3-{2-[(2-methoxypyrimidin-4-yl)methoxy]phenyl}propanoic acid]",6.1e-09 M,0.13 µM
"COc1nccc(COc2ccccc2CC(Oc2ncnc3sc(-c4ccc(F)c(O)c4)c(-c4ccc(OCCN5CCN(C)CC5)c(Cl)c4C)c23)C(=O)O)n1 [Example 595, (2R)-2-{[(5Sa)-5-{3-chloro-2-methyl-4-[2-(4-methylpiperazin-1-yl)ethoxy]phenyl}-6-(4-fluoro-3-hydroxyphenyl)thieno[2,3-d]pyrimidin-4-yl]oxy}-3-{2-[(2-methoxypyrimidin-4-yl)methoxy]phenyl}propanoic acid]",6.2e-09 M,0.114 µM
"COc1nccc(COc2ccccc2CC(Oc2ncnc3sc(-c4ccc(F)c(OCCN5CCOCC5)c4)c(-c4ccc(OCCN5CCN(C)CC5)c(Cl)c4C)c23)C(=O)O)n1 [Example 596, (2R)-2-[((5Sa)-5-{3-chloro-2-methyl-4-[2-(4-methylpiperazin-1-yl)ethoxy]phenyl}-6-{4-fluoro-3-[2-(morpholin-4-yl)ethoxy]phenyl}thieno[2,3-d]pyrimidin-4-yl)oxy]-3-{2-[(2-methoxypyrimidin-4-yl)methoxy]phenyl}propanoic acid]",2.7e-09 M,0.12 µM
"COc1nccc(COc2ccccc2CC(Oc2ncnc3sc(-c4ccc(F)c(OCCO)c4)c(-c4ccc(OCCN5CCN(C)CC5)c(Cl)c4C)c23)C(=O)O)n1 [Example 597, (2R)-2-[((5Sa)-5-{3-chloro-2-methyl-4-[2-(4-methylpiperazin-1-yl)ethoxy]phenyl}-6-[4-fluoro-3-(2-hydroxyethoxy)phenyl]thieno[2,3-d]pyrimidin-4-yl)oxy]-3-{2-[(2-methoxypyrimidin-4-yl)methoxy]phenyl}propanoic acid]",6.2e-09 M,0.449 µM
"COCCOc1cc(-c2sc3ncnc(OC(Cc4ccccc4OCc4ccnc(OC)n4)C(=O)O)c3c2-c2ccc(OCCN3CCN(C)CC3)c(Cl)c2C)ccc1F [Example 598, (2R)-2-[((5Sa)-5-{3-chloro-2-methyl-4-[2-(4-methylpiperazin-1-yl)ethoxy]phenyl}-6-[4-fluoro-3-(2-methoxyethoxy)phenyl]thieno[2,3-d]pyrimidin-4-yl)oxy]-3-{2-[(2-methoxypyrimidin-4-yl)methoxy]phenyl}propanoic acid]",7.8e-09 M,0.097 µM
"CCCCn1nccc1COc1ccccc1CC(Oc1ncnc2sc(-c3ccc(C#N)cc3)c(-c3ccc(OCCN4CCN(C)CC4)c(Cl)c3C)c12)C(=O)O [Example 600, (2R)-3-{2-[(1-butyl-1H-pyrazol-5-yl)methoxy]phenyl}-2-{[(5Sa)-5-{3-chloro-2-methyl-4-[2-(4-methylpiperazin-1-yl)ethoxy]phenyl}-6-(4-cyanophenyl)thieno[2,3-d]pyrimidin-4-yl]oxy}propanoic acid]",4.1e-09 M,0.031 µM
"CCCCn1nccc1COc1ccccc1CC(Oc1ncnc2sc(-c3ccc(CC)cc3)c(-c3ccc(OCCN4CCN(C)CC4)c(Cl)c3C)c12)C(=O)O [Example 601, (2R)-3-{2-[(1-butyl-1H-pyrazol-5-yl)methoxy]phenyl}-2-{[(5Sa)-5-{3-chloro-2-methyl-4-[2-(4-methylpiperazin-1-yl)ethoxy]phenyl}-6-(4-ethylphenyl)thieno[2,3-d]pyrimidin-4-yl]oxy}propanoic acid]",1.2e-08 M,0.133 µM
"CCCCn1nccc1COc1ccccc1CC(Oc1ncnc2sc(-c3ccc(O)cc3)c(-c3ccc(OCCN4CCN(C)CC4)c(Cl)c3C)c12)C(=O)O [Example 602, (2R)-3-{2-[(1-butyl-1H-pyrazol-5-yl)methoxy]phenyl}-2-{[(5Sa)-5-{3-chloro-2-methyl-4-[2-(4-methylpiperazin-1-yl)ethoxy]phenyl}-6-(4-hydroxyphenyl)thieno[2,3-d]pyrimidin-4-yl]oxy}propanoic acid]",3.7e-09 M,0.156 µM
"CCCCn1nccc1COc1ccccc1CC(Oc1ncnc2sc(-c3ccc(OC)cc3)c(-c3ccc(OCCN4CCN(C)CC4)c(Cl)c3C)c12)C(=O)O [Example 603, (2R)-3-{2-[(1-butyl-1H-pyrazol-5-yl)methoxy]phenyl}-2-{[(5Sa)-5-{3-chloro-2-methyl-4-[2-(4-methylpiperazin-1-yl)ethoxy]phenyl}-6-(4-methoxyphenyl)thieno[2,3-d]pyrimidin-4-yl]oxy}propanoic acid]",5e-09 M,0.036 µM

# Now from value to molecule, other results behind:
IC50 (Mcl-1 protein),SMILES,IC50 [1]
2e-08 M,"COc1ccccc1CC(Oc1ncnc2sc(-c3csc(Cl)c3)c(-c3ccc(OCCN4CCN(C)CC4)c(Cl)c3C)c12)C(=O)O [Example 570, (2R)-2-{[(5Sa)-5-{3-chloro-2-methyl-4-[2-(4-methylpiperazin-1-yl)ethoxy]phenyl}-6-(5-chlorothiophen-3-yl)thieno[2,3-d]pyrimidin-4-yl]oxy}-3-(2-methoxyphenyl)propanoic acid]",0.324 µM
4.4e-08 M,"COc1ccccc1CC(Oc1ncnc2sc(-c3csc4ccsc34)c(-c3ccc(OCCN4CCN(C)CC4)c(Cl)c3C)c12)C(=O)O [Example 571, (2R)-2-{[(5Sa)-5-{3-chloro-2-methyl-4-[2-(4-methylpiperazin-1-yl)ethoxy]phenyl}-6-(thieno[3,2-b]thiophen-3-yl)thieno[2,3-d]pyrimidin-4-yl]oxy}-3-(2-methoxyphenyl)propanoic acid]",0.559 µM
1.1e-08 M,"CCC#Cc1sc2ncnc(OC(Cc3ccccc3OC)C(=O)O)c2c1-c1ccc(OCCN2CCN(C)CC2)c(Cl)c1C [Example 573, (2R)-2-{[6-(but-1-yn-1-yl)-(5Sa)-5-{3-chloro-2-methyl-4-[2-(4-methylpiperazin-1-yl)ethoxy]phenyl}thieno[2,3-d]pyrimidin-4-yl]oxy}-3-(2-methoxyphenyl)propanoic acid]",0.366 µM
6.2e-08 M,"COc1ccccc1CC(Oc1ncnc2sc(C(C)(F)F)c(-c3ccc(OCCN4CCN(C)CC4)c(Cl)c3C)c12)C(=O)O [Example 576, (2R)-2-{[(5Sa)-5-{3-chloro-2-methyl-4-[2-(4-methylpiperazin-1-yl)ethoxy]phenyl}-6-(1,1-difluoroethyl)thieno[2,3-d]pyrimidin-4-yl]oxy}-3-(2-methoxyphenyl)propanoic acid]",1.51 µM
3.8e-08 M,"C#Cc1ccc(-c2sc3ncnc(OC(Cc4ccccc4OC)C(=O)O)c3c2-c2ccc(OCCN3CCN(C)CC3)c(Cl)c2C)o1 [Example 578, (2R)-2-{[(5Sa)-5-{3-chloro-2-methyl-4-[2-(4-methylpiperazin-1-yl)ethoxy]phenyl}-6-(5-ethynylfuran-2-yl)thieno[2,3-d]pyrimidin-4-yl]oxy}-3-(2-methoxyphenyl)propanoic acid]",0.347 µM
8.5e-09 M,"COc1ccccc1CC(Oc1ncnc2sc(-c3ccc(C#N)o3)c(-c3ccc(OCCN4CCN(C)CC4)c(Cl)c3C)c12)C(=O)O [Example 579, (2R)-2-{[(5Sa)-5-{3-chloro-2-methyl-4-[2-(4-methylpiperazin-1-yl)ethoxy]phenyl}-6-(5-cyanofuran-2-yl)thieno[2,3-d]pyrimidin-4-yl]oxy}-3-(2-methoxyphenyl)propanoic acid]",0.463 µM
2.9e-08 M,"C=Cc1ccc(-c2sc3ncnc(OC(Cc4ccccc4OC)C(=O)O)c3c2-c2ccc(OCCN3CCN(C)CC3)c(Cl)c2C)o1 [Example 584, (2R)-2-{[(5Sa)-5-{3-chloro-2-methyl-4-[2-(4-methylpiperazin-1-yl)ethoxy]phenyl}-6-(5-ethenylfuran-2-yl)thieno[2,3-d]pyrimidin-4-yl]oxy}-3-(2-methoxyphenyl)propanoic acid]",0.902 µM
8.5e-08 M,"COc1ccccc1CC(Oc1ncnc2sc(-c3ccc(C4CC4)o3)c(-c3ccc(OCCN4CCN(C)CC4)c(Cl)c3C)c12)C(=O)O [Example 585, (2R)-2-{[(5Sa)-5-{3-chloro-2-methyl-4-[2-(4-methylpiperazin-1-yl)ethoxy]phenyl}-6-(5-cyclopropylfuran-2-yl)thieno[2,3-d]pyrimidin-4-yl]oxy}-3-(2-methoxyphenyl)propanoic acid]",2.92 µM
8.7e-09 M,"COCCOc1cccc(-c2sc3ncnc(OC(Cc4ccccc4OC)C(=O)O)c3c2-c2ccc(OCCN3CCN(C)CC3)c(Cl)c2C)c1 [Example 589, (2R)-2-[((5Sa)-5-{3-chloro-2-methyl-4-[2-(4-methylpiperazin-1-yl)ethoxy]phenyl}-6-[3-(2-methoxyethoxy)phenyl]thieno[2,3-d]pyrimidin-4-yl)oxy]-3-(2-methoxyphenyl)propanoic acid]",0.233 µM
